Experimental data published in patent US11786514B2, “Sustained release aminopyridine composition” (priority 2003, dated 2023).

Tests used:
[1] = Multiple oral dose pharmacokinetics in patients with SCI (Example 3); details: both sexes, human, in vivo
Description: This example details the plasma concentration of different dosage tablets of a aminopyridine in compositions of the present invention administered to patients with spinal cord injury. Pharmacokinetic results are presented for the subset of 11 patients who completed all dose levels. […] The time of the peak and the plasma elimination half-lives were independent of dose. […] The […] of fampridine ranged from 5.7 to 6.9 hours. There were no apparent differences between males and females.

[2] = Single dose, dose proportionality pharmacokinetics and safety in patients with multiple sclerosis (Example 4); type: in vivo, human
Description: This example details the pharmacokinetic properties of Fampridine-SR in tablets of the present invention administered to patients with multiple sclerosis. Plasma samples were analyzed for fampridine using a validated LC/MS/MS assay with a sensitivity of 2 ng/mL. Noncompartmental pharmacokinetic parameter values were calculated using standard methodology.
This was an open-label, multi-center, dose proportionality study of orally administered fampridine in patients with multiple sclerosis. Single doses of fampridine were to be given in escalating doses (5 mg, 10 mg, 15 mg, and 20 mg) with at least a four-day interval between administration of each dose of drug. Safety evaluations were to be performed during the 24 hour period following administration of fampridine and blood samples were to be taken at the following times to determine pharmacokinetic parameters: hour 0 (pre-dose), hours 1-8, and hours 10, 12, 14, 18, and 24.
Twenty-three subjects received all 4 treatments, and one subject received only 3 treatments; data from all treatments were analyzed. Dose-dependent parameters (e.g., peak plasma concentration and areas-under-the curve) were normalized to a 10 mg dose for among-dose comparisons.

[3] = Single escalating dose pharmacokinetics and tolerability in patients with chronic incomplete SCI (Example 6)
Description: Each patient was to receive each dose in an ascending fashion. Each dose was to be followed by a 7-day washout period. […] Patients were to continue their fast for 4 hours after dosing and then a standard meal was to be served. Blood samples for pharmacokinetic analysis were to be obtained at Hour 0 (immediately preceding study drug administration) and 1, 2, 3, 4, 5, 6, 8, 10, 12, 16, 20, and 24 hours after each dose. A baseline urine sample was to be collected prior to dosing and urine was to be collected for 24 hours after administration of the study drug at the following intervals: 0.1 to 4 hours; 4.1 to 8 hours; 8.1 to 12 hours; and 12.1 to 24 hours.

[4] = Steady state pharmacokinetics and safety in patients with MS (Example 5); type: in vivo, human
Description: This example describes the results of an open-label study to assess the steady state pharmacokinetics of orally administered fampridine (4-aminopyridine) compositions of the present invention in subjects with Multiple Sclerosis. […] Blood samples for pharmacokinetic analysis were collected on Days 1, 7/8, and 14/15 at the following intervals: immediately prior to drug administration (baseline), hourly for the first 8 hours, and 10, 12, and 24 hours post-dose. Additional blood samples were collected 14, 18, and 20 hours post-dose on Day 14, and 30 and 36 hours post-dose on Day 15.

[5] = all doses 5-20 mg, mean and 95% confidence interval, patients with MS
[6] = single doses 10-25 mg, patients with chronic incomplete SCI
[7] = 20 mg twice daily for two weeks, patients with MS

Question: Which Tmax [1] does the source give for `Nc1ccncc1` [fampridine, 4-aminopyridine] here?
Answer: 2.2 to 3 h

Question: What about the half-life [1] of the same compound?
Answer: 5.7 to 6.9 h

Question: And the Cmax ([1]; po, 60 mg)?
Answer: 152 ng/mL

Question: What about the terminal half-life [2, 5] of the same compound?
Answer: 5.47 (5.05, 5.89) h

Question: And the terminal rate constant [2, 5]?
Answer: 0.14 (0.13, 0.15) h^−1

Question: What about the “area-under-the-concentration-time curve (normalized to a 10 mg dose)” value ([2]; human, in vivo) of the same compound?
Answer: 254 (238, 270) ng-h/ml

Question: And the clearance ([2]; human, in vivo)?
Answer: 637 mL/min

Question: What about the “differences between pharmacokinetic parameters (AUC, Cmax, t1/2) normalized to the 10.0 mg dose” value ([2]; human, in vivo) of the same compound?
Answer: no significant differences

Question: What about the “extrapolated area-under-the-concentration-time curve (normalized to a 10 mg dose)” value ([2]; human, in vivo) of the same compound?
Answer: 284 (266, 302) ng-h/ml

Question: And the “observed peak plasma fampridine concentration (normalized to a 10 mg dose)” value ([2]; human, in vivo)?
Answer: 24.12 (23.8, 26.6) ng/ml

Question: And the tolerability ([2]; single doses 5-20 mg, patients with MS)?
Answer: well tolerated

Question: And the Cmax ([3]; 25 mg single dose, fasted, patients with chronic incomplete SCI)?
Answer: 67.4 ng/mL

Question: And the “time of peak concentration (mean tmax) post-dose, over dose levels” value ([3]; human, in vivo)?
Answer: 3 to 4 h

Question: What about the Cmax ([3]; human, in vivo, 10 mg) of the same compound?
Answer: 27.7 ng/mL

Question: What about the “AUC0-24h as percentage of AUC0-∞” value [3, 6] of the same compound?
Answer: at least 92%

Question: What about the “mean plasma half-life (t1/2), independent of dose” value [3, 6] of the same compound?
Answer: approximately 6 hours

Question: And the “changes in corrected QT intervals or QRS amplitudes” value [4, 7]?
Answer: no apparent clinically significant changes

Question: And the “changes in mean clinical laboratory values, vital signs, or physical examination findings from baseline to last visit” value [4, 7]?
Answer: no clinically significant changes

Question: And the “most common treatment-related adverse event” value [4, 7]?
Answer: Dizziness

Question: What about the “other treatment-related adverse events” value [4, 7] of the same compound?
Answer: nausea, ataxia, insomnia, and tremor

Question: What about the tolerability ([4]; 20 mg/dose twice daily for two weeks, subjects with multiple sclerosis) of the same compound?
Answer: well tolerated
